22 compounds from patent US9878999B2, “Proteasome chymotrypsin-like inhibition using PI-1833 analogs” (H. Lee Moffitt Cancer Center and Research Institute, Inc., priority 2011, dated 2018) can be followed below.

One may read the melting point as the temperature, or range, at which the solid turns liquid. By inhibition is commonly meant the drop in the measured response relative to a control, in per cent.

Several values for one entry are separate records, joined by “and”; a condition that tells them apart may be missing. Equal values may be shown once. Entries after “also recorded” stand apart in the source; their conditions may differ. Read-outs that look alike come from different tables or passages of the source.

Data set [1] deals with T1, PGPH activity in MDA-MB-468 cells (Homo sapiens, UniProt P28072).
T1 construct: endogenous in cells; host or cells: MDA-MB-468
In words: PGPH activity in MDA-MB-468 cells. Type of data set: cell-based. The settings on record: MDA-MB-468, within 10 min.

For the next data set, the system named is HCT-116-p53^−/−. In words: MTT assay, proliferation and viability. It counts as cell-based. A general note: Formazan colour is commonly taken as a measure of viable cells.
The test system of the next data set is HCT-116. Briefly: MTT assay, proliferation and viability. It counts as cell-based. The following applies: Homo sapiens, HCT-116, mut K-Ras.
For another data set, the system named is Colo357. Briefly: MTT assay, proliferation and viability. Type of data set: cell-based. The settings on record: Homo sapiens, COLO357, 96 h.
In data set [2] the target is CT-L activity of purified 20S proteasome (Homo sapiens, UniProt P20618+P28074). In words: in vitro CT-L activity of purified 20S proteasome. It counts as biochemical.
A further data set concerns HCT-116-HKH2. Briefly: MTT assay, proliferation and viability. The following applies: HCT-116-HKH2, K-Ras^−/−. Type of data set: cell-based.
Another data set deals with MCF-10A. Briefly: MTT assay, proliferation and viability. Type of data set: cell-based. The following applies: Homo sapiens, normal/immortalized, 72 h.
For a further data set, the system named is LNCaP. In words: MTT assay, proliferation and viability. The following applies: Homo sapiens, Bax^+/+. Type of data set: cell-based.
For another data set, the system named is MDA-MB-468. In words: MTT assay, proliferation and viability. Type of data set: cell-based. The settings on record: Homo sapiens, MDA-MB-468, WT K-Ras.
Data set [3] concerns proteasome substrates p27, Bax and IKB. Briefly: Western blot, accumulation of proteasome substrates. Type of data set: cell-based.
The subject of the next data set is RX7-397. In words: MTT assay, proliferation and viability. Type of data set: cell-based. The following applies: RX7-397, 96 h.
In data set [4] the test system is MDA-MB-468 and HCT-116 cells. Briefly: Western blot for cleaved caspase-3 and cleaved PARP (apoptosis). Type of data set: cell-based, human. The settings on record: 48 h or 24 h. The procedure:
FIG. 17 is a blot showing the apoptotic potential of PI-1833 and PI-1840. Exponentially growing human breast cancer cells MDA-MB-468 and colon cancer cells HCT-116 were treated with different concentrations of PI-1833 or PI-1840 for 48 h or 24 h, followed by WB analysis for cleaved caspase-3 and cleaved PARP.
In general terms: Immunoblotting shows a protein as a band on a membrane.

Data set [5] addresses T2, T-L activity in MDA-MB-468 cells (Homo sapiens, UniProt Q99436).
T2 construct: endogenous in cells; host or cells: MDA-MB-468
In words: T-L activity in MDA-MB-468 cells. Type of data set: cell-based. The settings on record: MDA-MB-468, within 10 min.

For a further data set, the system named is DU-145. In words: MTT assay, proliferation and viability. The following applies: Homo sapiens, DU-145, Bax^−/−. Type of data set: cell-based.
The subject of the next data set is RPMI-8226. In words: MTT assay, proliferation and viability. It counts as cell-based. The settings on record: Homo sapiens.
Another data set relates to PC3. Briefly: MTT assay, proliferation and viability. It counts as cell-based. The settings on record: Homo sapiens, PC-3.
Data set [6] addresses T3, CT-L activity in human breast cancer MDA-MB-468 cells (Homo sapiens, UniProt P20618+P28074).
T3 construct: endogenous in cells; host or cells: MDA-MB-468
In words: whole cell CT-L activity in MDA-MB-468 cells. Type of data set: cell-based.

The subject of a further data set is MDA-MB-231. In words: MTT assay, proliferation and viability. Type of data set: cell-based. The settings on record: Homo sapiens, MDA-MB-231, mut K-Ras.
The mark [7] stands for this setting: 72 h, read-out: 72 h (MTT assay).
Where [8] appears, read: 96 h, read-out: 96 h (MTT assay).
Where [9] appears, read: WT p53, 72 h, read-out: 72 h (MTT assay).
[10] abbreviates: WT p53, 96 h, read-out: 96 h (MTT assay).
The mark [11] stands for this setting: Table 1, read-out: IC50 (μM) Chymotrypsin-like activity.
[12] abbreviates: Table 5, read-out: IC50 (μM) Chymotrypsin-like.
Setting [13] is: Table 9, read-out: IC50 (μM) Chymotrypsin-like.

With `CCCc1ccc(OCC(=O)N(Cc2nc(-c3cccnc3)no2)C(C)C)cc1` [11ad], the “inhibition of PGPH activity in cells, in words” value in [1] is reported as “not T-L or PGPH”. Also, the IC50 with HCT-116-p53^−/− (setting [7]) is 45.9 ± 19.9 µM; in the data set on HCT-116-p53^−/− (setting [8]), 31.1 µM; in the data set on HCT-116 (setting [9]) it was 40.9 ± 15.8 µM; in the data set with HCT-116 (setting [10]) it was 35.3 µM; with Colo357 it was 95.7 µM; in data set [2] (read-out: IC50, in vitro CT-L) it was 0.032 µM. Also, the IC50 is 43 ± 9.73 µM in the data set on HCT-116-HKH2 (setting [9]); 12.8 µM in the data set on HCT-116-HKH2 (setting [10]); 63.1 ± 7.06 µM in the data set with MCF-10A; 49 ± 6.81 µM in the data set on LNCaP (setting [7]); 17.2 µM in the data set on LNCaP (setting [8]); 25.4 ± 5.83 µM in the data set on MDA-MB-468 (mut p53, 72 h, read-out: 72 h (MTT assay)). In addition, the IC50 with MDA-MB-468 (mut p53, 96 h, read-out: 96 h (MTT assay)) worked out at 11.6 µM; with RX7-397, 56.9 µM; with DU-145 (setting [7]), 123 ± 25.2 µM; in the data set on DU-145 (setting [8]), 159 µM; in the data set with RPMI-8226 (RPMI-8226, 72 h, read-out: 72 h (MTT assay)), 35.9 ± 11.2 µM; in the data set on RPMI-8226 (RPMI-8226, 96 h, read-out: 96 h (MTT assay)) it was 34.7 µM. Moreover, the IC50 with PC3 (PC3, 72 h, read-out: 72 h (MTT assay)) turned out to be 92.7 µM; in the data set with PC3 (PC3, 96 h, read-out: 96 h (MTT assay)), 62.5 µM; in the data set on MDA-MB-231 (setting [7]), 133 ± 21.6 µM; with MDA-MB-231 (setting [8]), 106 µM. The “fold improved CT-L activity” value in [2] (compared to the hit 1 (PI-1833)) was 20 fold. Besides, the “accumulation of proteasome substrates p27, Bax and IKB, in words” value in [3] is “more potent at accumulating the proteasome substrates p27, Bax and IKB”. In addition, the “induction of apoptosis, in words” value in data set [4] was “efficiently inducing apoptosis”. Further, in data set [5], the “inhibition of T-L activity in cells, in words” value is on record as “not T-L or PGPH”. Further, the “inhibition of CT-L activity in cells, in words” value in [6] (MDA-MB-468, listed as PI-1840) was “inhibits CT-L; also recorded: more potent at inhibiting CT-L activity in human breast cancer”.

On to `CC(C)N(Cc1nc(-c2ccccc2)no1)C(=O)COc1ccc(C(=O)O)cc1` [11t, 4-(2-(Isopropyl((3-phenyl-1,2,4-oxadiazol-5-yl)methyl)amino)-2-oxoethoxy)benzoic acid], for which the melting point fell in the range of 211.3 to 213.8 °C. Besides, the IC50 in data set [2] (setting [11]) was found to be 27.8 ± 20.8 µM. In [2] (read-out: IC50, in vitro CT-L), the IC50 came out at 27 µM.

Regarding `Cc1ccc(OCC(=O)N(Cc2nc(-c3ccc(C)cc3)no2)C(C)C)cc1` [compound 1, N-Isopropyl-N-((3-p-tolyl-1,2,4-oxadiazol-5-yl)methyl)-2-(p-tolyloxy)acetamide], the IC50 in data set [2] (setting [11]) was 0.63 ± 0.35 µM; in [2] (Table 2, read-out: IC50 (μM) Chymotrypsin-like activity) it was 0.63 ± 0.35 µM; in data set [2] (Table 7, 20S CT-L proteasome activity, read-out: IC50 (μM) CT-L) it was 0.716 ± 0.27 µM; in [2] (read-out: IC50, in vitro CT-L), 0.65 ± 0.39 µM; in [6] (MDA-MB-468 breast cancer cells, read-out: whole cell IC50 activity), 1.1 µM and 1 µM.

For the compound `Cc1ccc(OCC(=O)N(Cc2nc(-c3ccc(C)cc3)no2)C(C)C)cc1` [drawing 107], the IC50 is 0.63 ± 0.35 µM in data set [2] (setting [12]) and 1.1 µM in data set [6] (Table 5, MDA-MB-468, read-out: Whole cell IC50 (μM) Chymotrypsin-like).

Take `Cc1ccc(O[C@@H](C)C(=O)N(Cc2nc(-c3cccnc3)no2)C(C)C)cc1` [drawing 162]: in data set [2] (setting [12]), the IC50 is 0.214 ± 0.053 µM.

For `Cc1ccc(O[C@H](C)C(=O)N(Cc2nc(-c3cccnc3)no2)C(C)C)cc1` [drawing 163], the IC50 in data set [2] (setting [12]) turned out to be 7.52 ± 2.13 µM.

Take `CCCCCc1ccc(OCC(=O)N(Cc2nc(-c3cccnc3)no2)C(C)C)cc1` [drawing 164]: the IC50 in data set [2] (setting [12]) is 0.121 ± 0.04 µM.

For the compound `CCCCCCc1ccc(OCC(=O)N(Cc2nc(-c3cccnc3)no2)C(C)C)cc1` [drawing 165], the IC50 in [2] (setting [12]) was 0.428 ± 0.038 µM.

As to `CCCCc1ccc(OCC(=O)N(Cc2nc(-c3cnccn3)no2)C(C)C)cc1` [drawing 166], in data set [2] (setting [12]), the IC50 was 0.107 ± 0.013 µM.

For the compound `CCCc1ccc(OCC(=O)N(Cc2nc(-c3cnccn3)no2)C(C)C)cc1` [drawing 167], the IC50 in data set [2] (setting [12]) is 0.105 ± 0.031 µM.

`CCCc1ccc(OCC(=O)N(Cc2nc(-c3cncnc3)no2)C(C)C)cc1` [drawing 168]: in data set [2] (setting [12]), the IC50 is 0.032 ± 0.003 µM.

On to `CC(C)N(Cc1nc(-c2cccnc2)no1)C(=O)COc1ccc(C2CCCCC2)cc1` [drawing 169], for which the IC50 in data set [2] (setting [12]) was determined as 1.36 ± 0.184 µM.

As for `CC(C)N(Cc1nc(-c2cccnc2)no1)C(=O)COc1ccc(C(C)(C)C)cc1` [drawing 170], the IC50 in data set [2] (setting [12]) stood at 65.9 ± 33.7 µM.

`CC(C)c1ccc(OCC(=O)N(Cc2nc(-c3cccnc3)no2)C(C)C)cc1` [drawing 171]: the IC50 in data set [2] (setting [12]) was 0.436 ± 0.073 µM.

As to `Cc1ccc(OCC(=O)N(Cc2nc(-c3ccc(C)cc3)no2)C2CC2)cc1` [drawing 172], in data set [2] (Table 5, @ 10 μM, read-out: Screening Results (% Inhibition @ 10 μM) Chymotrypsin-like), the inhibition at 10 µM was -8.36 ± 19%.

With `CC(C)Cc1ccc(OCC(=O)N(Cc2nc(-c3cccnc3)no2)C(C)C)cc1` [drawing 173], in data set [2] (setting [12]), the IC50 was determined as 0.14 ± 0.052 µM.

With `CCCc1ccc(OCC(=O)N(Cc2nc(-c3ncccn3)no2)C(C)C)cc1` [drawing 174], in [2] (setting [12]), the IC50 was 1.27 ± 0.226 µM.

On to `CC(C)N(Cc1nc(-c2ccccc2)no1)C(=O)CCc1ccc(C(F)(F)F)cc1` [drawing 180], for which the IC50 in data set [2] (Table 8, 20S CT-L proteasome activity, read-out: IC50 (μM) CT-L) was 15.7 µM.

As to `CC(C)N(Cc1nc(-c2ccccc2)no1)C(=O)CCc1ccc(C(F)(F)F)cc1` [drawing 183], the IC50 in data set [2] (setting [13]) was 15.7 µM.

With `Cc1ccc(OCC(=O)N(C)Cc2nc(-c3ccc(C)cc3)no2)cc1` [drawing 186], the IC50 in data set [2] (setting [13]) was determined as 29.9 µM.

For `Cc1ccc(OCC(=O)N(Cc2nc(-c3ccc(C)cc3)no2)CC(C)C)cc1` [drawing 187], the IC50 in [2] (setting [13]) amounted to 2.37 ± 0.4 µM.

For “N-Isopropyl-N-((2-phenyloxazol-4-yl)methyl)-2-(p-tolyloxy)acetamide [SO3-023]”, in [2] (Table 4, read-out: IC50 (μM) Chymotrypsin-like activity), the IC50 worked out at 0.45 ± 0.18 µM.
